≈ marks a conversion by molar mass, not a printed value. Where “and” joins values, the source holds several entries; their conditions need not be identical. Identical values can stand only once. Entries after “also recorded” stand apart in the source; their conditions may differ. Like-named read-outs stand apart in the source and are kept apart here. No end group written: not given here.
How the values were obtained:
[1] = target: T1, E. coli cytochrome bd-I (Escherichia coli, UniProt P0ABJ9); assay: Oxygen consumption assay (oxygen electrode), E. coli EC958 bd-I-only membranes; conditions: for Effect on oxygen consumption (in words) / IC50: E. coli bd-I-only membranes; for Effect on oxygen consumption (in words) / Inhibition of oxygen consumption: 100 µM drug; for Inhibition of oxygen consumption / IC50: 8 mM succinate; for Inhibition of oxygen consumption: 500 µg/mL membranes; for IC50: IC50 oxygen consumption
T1 sequence (P0ABK2 whole entry, one chain of several): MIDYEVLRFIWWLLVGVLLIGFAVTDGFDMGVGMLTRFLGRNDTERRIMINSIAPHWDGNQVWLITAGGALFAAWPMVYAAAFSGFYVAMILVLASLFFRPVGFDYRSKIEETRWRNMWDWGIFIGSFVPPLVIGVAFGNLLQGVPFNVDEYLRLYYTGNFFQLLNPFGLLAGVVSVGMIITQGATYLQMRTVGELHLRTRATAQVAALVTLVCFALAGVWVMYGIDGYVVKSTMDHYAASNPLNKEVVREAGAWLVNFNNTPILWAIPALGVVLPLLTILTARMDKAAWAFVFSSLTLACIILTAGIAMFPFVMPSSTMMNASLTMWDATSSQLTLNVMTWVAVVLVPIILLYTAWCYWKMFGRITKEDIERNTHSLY
T1 sequence (A5A618 whole entry, one chain of several, further chain): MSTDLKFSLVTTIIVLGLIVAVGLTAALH
T1 sequence (P56100 whole entry, one chain of several, further chain): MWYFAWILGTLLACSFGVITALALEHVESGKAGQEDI

[2] = test system: gram-negative species; set-up: method as in PMID 28190396; conditions: previous screen ref 31; cited from earlier work
[3] = test system: MRSA bd-only strain; assay: Growth assay, MRSA USA300 bd-only strain; conditions: Staphylococcus aureus, read-out: IC50 growth
Text: (§1) The methicillin-resistant Staphylococcus aureus (MRSA) strain used is the well-characterized USA300 LAC isolate [27], a community-associated MRSA strain isolated from the Los Angeles County Jail. All MRSA mutant strains were generated by phage transduction of the relevant transposon mutant from the Nebraska Transposon Mutant Library [28] into strain USA300 LAC using methods described previously [29], generating clean insertions in the loci of interest and conferring erythromycin resistance. For the purposes of this article, the MRSA qoxA::Tn strain will be referred to as “bd-only” while the cydA::Tn strain will be referred to as “aa3-only.”
(§2) Starter cultures were grown in 10 mL Luria–Bertani (LB) (E. coli) or 10 mL Tryptic Soy Broth (TSB) medium (MRSA) in sterile 50 mL conical flasks at 180 rpm and 37°C, until stationary phase was reached, and were used to inoculate 50 mL of fresh growth medium in 250 mL conical flasks. M9 minimal medium was used for E. coli (16 g/L Na2HPO4.2H2O, 3 g/L KH2PO4, 0.5 g/L NaCl, 1 g/L NH4Cl, 0.24 g/L MgSO4, 0.01 g/L CaCl2, 0.1% casamino acids, and 2% glycerol), and TSB medium was used for MRSA. […] Cells were grown in a FLUOstar Omega plate reader at double orbital pattern setting with readings being taken 300 seconds apart.

[4] = test system: MRSA aa3-only strain; assay: Growth assay, MRSA USA300 aa3-only strain; conditions: Staphylococcus aureus, read-out: IC50 growth
Text: as §1, §2

[5] = test system: E. coli bo′-only cells; assay: Viability assay, E. coli bo′-only; conditions: data not shown
[6] = test system: E. coli bo′-only strain; assay: Growth assay, E. coli EC958 bo′-only strain; conditions: Escherichia coli, read-out: IC50 growth
Text: as §1, §2

[7] = test system: MRSA aa3-only cells; assay: microbe, parasite or virus in culture; conditions: Staphylococcus aureus, 3 h, read-out: LC50 (median lethal concentration)
Method: (§3) Viability assays were performed essentially as described by Webster et al [22]. In brief, E. coli EC958 was grown overnight in 10 mL LB medium and was used to inoculate M9 medium. MRSA cells were grown in TSB medium throughout. Twenty microliters of each drug was added to the wells of row A of a 96-well plate followed by 180 µL of cells (OD600 of 0.1). Cells were exposed to drug for 3 hours at 37°C. Following drug exposure, serial dilutions were performed in 1× phosphate-buffered saline (pH 7.4) before being spotted onto LB agar plates overnight to determine changes in cell growth. Six repeats were performed for each concentration of drug, which included 2 biological repeats and 3 technical repeats of each.

[8] = test system: vancomycin-resistant Enterococcus faecium; set-up: method as in PMID 28190396; conditions: previous screen ref 31; cited from earlier work
[9] = test system: MRSA WT cells; assay: microbe, parasite or virus in culture; conditions: Staphylococcus aureus, 3 h, read-out: LC50 (median lethal concentration)
Method: as §3

[10] = test system: MRSA; set-up: method as in PMID 28190396; conditions: previous screen ref 31; cited from earlier work
[11] = target: MRSA cytochrome bd (Staphylococcus aureus, UniProt A0A0H2XF42); assay: Oxygen consumption assay, MRSA bd-only membranes; conditions: read-out: IC50 oxygen consumption; MRSA bd-only membranes 1 mg/mL, 500 µM NADH
Sequence of MRSA cytochrome bd (A0A0H2XF42 entry or part of it): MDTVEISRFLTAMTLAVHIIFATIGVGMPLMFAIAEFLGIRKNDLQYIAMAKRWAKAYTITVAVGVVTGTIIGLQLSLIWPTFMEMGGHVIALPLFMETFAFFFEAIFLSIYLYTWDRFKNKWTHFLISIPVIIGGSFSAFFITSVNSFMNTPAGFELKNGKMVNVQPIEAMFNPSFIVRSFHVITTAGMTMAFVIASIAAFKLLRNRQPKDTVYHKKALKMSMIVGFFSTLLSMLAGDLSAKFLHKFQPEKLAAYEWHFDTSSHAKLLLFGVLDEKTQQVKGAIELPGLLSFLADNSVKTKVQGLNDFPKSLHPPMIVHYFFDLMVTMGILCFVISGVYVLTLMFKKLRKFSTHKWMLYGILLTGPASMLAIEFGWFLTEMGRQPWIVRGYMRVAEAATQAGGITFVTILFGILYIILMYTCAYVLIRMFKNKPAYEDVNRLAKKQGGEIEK
Sequence of MRSA cytochrome bd (A0A0H2XJA4 entry or part of it, further chain): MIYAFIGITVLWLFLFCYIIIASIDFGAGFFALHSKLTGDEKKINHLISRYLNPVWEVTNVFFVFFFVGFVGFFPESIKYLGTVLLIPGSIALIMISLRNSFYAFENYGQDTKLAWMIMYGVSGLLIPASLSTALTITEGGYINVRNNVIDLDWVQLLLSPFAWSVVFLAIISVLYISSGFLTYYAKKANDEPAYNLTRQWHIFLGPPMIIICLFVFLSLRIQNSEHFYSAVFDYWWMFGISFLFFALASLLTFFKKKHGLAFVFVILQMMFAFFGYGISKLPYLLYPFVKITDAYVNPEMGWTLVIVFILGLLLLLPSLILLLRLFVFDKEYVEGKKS

[12] = test system: E. coli bd-I-only cells; assay: Viability assay, E. coli bd-I-only; format: cell-based, Escherichia coli; conditions: data not shown
[13] = test system: E. coli WT cells; assay: Viability assay, E. coli WT; conditions: 3 hours exposure
Method: as §3

[14] = target: T2, succinate dehydrogenase (Escherichia coli, UniProt P07014+P0AC41+P0AC44+P69054); assay: Succinate dehydrogenase assay, E. coli bd-I-only membranes; format: biochemical
T2 construct: endogenous in cells; host or cells: E. coli EC958 bd-I-only mutant (ΔcyoA appCB::Cm), isolated cell membranes
T2 sequence (P0AC44 whole entry): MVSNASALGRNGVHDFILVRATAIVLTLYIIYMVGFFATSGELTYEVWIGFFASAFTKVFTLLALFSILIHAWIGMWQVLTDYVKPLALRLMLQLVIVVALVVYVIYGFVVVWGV
T2 sequence (P07014 whole entry): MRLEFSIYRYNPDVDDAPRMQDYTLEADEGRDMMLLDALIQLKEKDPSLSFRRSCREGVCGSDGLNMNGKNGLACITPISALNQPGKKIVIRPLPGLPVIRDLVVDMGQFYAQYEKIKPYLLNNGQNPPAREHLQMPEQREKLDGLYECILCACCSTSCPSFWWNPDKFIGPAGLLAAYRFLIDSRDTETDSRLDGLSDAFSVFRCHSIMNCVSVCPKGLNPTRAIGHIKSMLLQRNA
T2 sequence (P0AC41 whole entry): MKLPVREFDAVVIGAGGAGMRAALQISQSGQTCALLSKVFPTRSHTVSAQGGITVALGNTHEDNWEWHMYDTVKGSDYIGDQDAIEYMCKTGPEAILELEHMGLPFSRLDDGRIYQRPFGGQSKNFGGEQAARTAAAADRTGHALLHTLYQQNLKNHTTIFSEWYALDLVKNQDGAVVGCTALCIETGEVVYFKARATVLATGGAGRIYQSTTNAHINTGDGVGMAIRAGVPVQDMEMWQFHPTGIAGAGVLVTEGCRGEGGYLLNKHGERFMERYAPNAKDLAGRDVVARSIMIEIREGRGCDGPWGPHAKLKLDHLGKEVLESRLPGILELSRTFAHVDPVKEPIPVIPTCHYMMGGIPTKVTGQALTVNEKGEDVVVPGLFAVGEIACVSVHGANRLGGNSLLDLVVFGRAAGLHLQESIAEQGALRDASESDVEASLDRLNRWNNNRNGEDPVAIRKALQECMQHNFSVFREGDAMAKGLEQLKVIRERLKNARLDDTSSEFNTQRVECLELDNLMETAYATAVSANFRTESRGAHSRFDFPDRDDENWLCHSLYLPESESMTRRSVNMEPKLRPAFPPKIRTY
T2 sequence (P69054 whole entry): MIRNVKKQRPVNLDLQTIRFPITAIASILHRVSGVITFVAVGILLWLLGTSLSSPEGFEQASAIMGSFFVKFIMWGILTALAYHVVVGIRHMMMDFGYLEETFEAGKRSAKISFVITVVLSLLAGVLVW
Method: The method used for the succinate dehydrogenase assay is an adaptation of Kolaj-Robin et al. 2011 [6]. A 1 mL mixture was prepared with a final concentration of 400 μM phenazine methosulfate (PMS), 8 mM succinate, 50 mM Tris-HCL (pH 8.5) buffer, 0.02 % n-dodecyl-β-D-maltoside, 2.5% drug, 500 µg/mL of bacteria membranes and 50 μM of dichlorophenolindophenol (added last). The phenazine methosulfate, succinate and membranes were first preincubated for 30 min at 37 °C before being added to the remaining mixture. To start the reaction, 50 μM of dichlorophenolindophenol was added that produced a starting OD600 that ranged from 0.8 to 1. Spectrakinetics were recorded on a Cary 60 spectrophotometer for 15 min.
Supplementary Figure S3. Succinate dehydrogenase (SDH) E. coli membrane assay with quinestrol. The activity of SDH was expressed as a percentage of the DMSO only control. Data represent the means of three repeats and error bars represent the standard deviation.

[15] = test system: E. coli EC958 WT; assay: Growth assay, E. coli EC958 WT; conditions: Escherichia coli, EC958WT, read-out: IC50 growth
Method: (§4) Starter cultures were grown in 10 mL Luria–Bertani (LB) (E. coli) or 10 mL Tryptic Soy Broth (TSB) medium (MRSA) in sterile 50 mL conical flasks at 180 rpm and 37°C, until stationary phase was reached, and were used to inoculate 50 mL of fresh growth medium in 250 mL conical flasks. M9 minimal medium was used for E. coli (16 g/L Na2HPO4.2H2O, 3 g/L KH2PO4, 0.5 g/L NaCl, 1 g/L NH4Cl, 0.24 g/L MgSO4, 0.01 g/L CaCl2, 0.1% casamino acids, and 2% glycerol), and TSB medium was used for MRSA. […] Greiner F-bottom sterile 96-well plates were prepared by adding 100 µL of a 2× concentrated growth medium, 61.7 µL sterile milliQ H2O, 5 µL of the drug, and 33.3 µL of cell culture (final optical density at 600 nm [OD600] of ∼ 0.1). Cells were grown in a FLUOstar Omega plate reader at double orbital pattern setting with readings being taken 300 seconds apart.

[16] = test system: MRSA bd-only cells; assay: microbe, parasite or virus in culture; conditions: Staphylococcus aureus, 3 h, read-out: LC50 (median lethal concentration)
Method: as §3

[17] = test system: E. coli bd-I-only strain; assay: Growth assay, E. coli EC958 bd-I-only strain; conditions: Escherichia coli, read-out: IC50 growth
Text: as §1, §2

[18] = test system: MRSA USA300 WT; assay: Growth assay, MRSA USA300 WT
Method: as §4

[19] = target: T3, E. coli cytochrome bd-I (Escherichia coli, UniProt P0ABJ9); conditions: peptides that bind to E. coli cytochrome bd-I ref 33, 34, 35; cited from earlier work
T3 construct: endogenous in cells; host or cells: E. coli EC958 (O25:H4-ST131) bd-I-only mutant (ΔcyoA appCB::Cm), isolated cell membranes
T3 sequence (P0ABJ9 whole entry, looked up): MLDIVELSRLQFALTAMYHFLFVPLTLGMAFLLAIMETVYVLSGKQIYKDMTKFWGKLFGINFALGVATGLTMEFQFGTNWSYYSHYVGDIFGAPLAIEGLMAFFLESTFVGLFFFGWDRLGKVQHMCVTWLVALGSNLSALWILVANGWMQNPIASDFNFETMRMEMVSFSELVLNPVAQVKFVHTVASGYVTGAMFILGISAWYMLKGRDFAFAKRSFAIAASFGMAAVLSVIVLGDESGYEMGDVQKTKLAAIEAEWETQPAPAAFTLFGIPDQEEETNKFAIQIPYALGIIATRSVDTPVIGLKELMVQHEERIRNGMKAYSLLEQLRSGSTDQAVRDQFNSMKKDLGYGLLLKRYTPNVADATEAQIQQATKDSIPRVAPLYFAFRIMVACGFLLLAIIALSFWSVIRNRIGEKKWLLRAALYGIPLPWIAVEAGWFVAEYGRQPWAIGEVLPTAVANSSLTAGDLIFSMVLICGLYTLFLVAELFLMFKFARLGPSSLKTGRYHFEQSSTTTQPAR

[20] = test system: Mycobacterium smegmatis bd-only strain; set-up: method as in PMID 31939065; conditions: ATP assays, M. smegmatis bd-only strain ref 40; cited from earlier work
[21] = target: T1, E. coli cytochrome bd-I; set-up: endogenous in cells; host or cells: E. coli EC958 (O25:H4-ST131) bd-I-only mutant (ΔcyoA appCB::Cm), isolated cell membranes; conditions: peptides that bind to E. coli cytochrome bd-I ref 33, 34, 35; cited from earlier work

Compound: C#C[C@]1(O)CC[C@H]2[C@@H]3CCc4cc(OC)ccc4[C@H]3CC[C@@]21C [Mestranol]
- Effect on oxygen consumption (in words) [1]: did not diminish oxygen consumption
- Effect on oxygen consumption (in words) ([1]; listed as mestranol): no inhibitory effects

Compound: C#C[C@]1(O)CC[C@H]2[C@@H]3CCc4cc(OC5CCCC5)ccc4[C@H]3CC[C@@]21C [Quinestrol]
- Growth inhibition (in words) [2]: not gram-negative species
- IC50 [3]: 2.2 µg/mL and 6 µM
- IC50 [4]: 5.7 µg/mL and 15.6 µM
- Bactericidal activity (in words) [5]: no killing effects
- IC50 [6]: 0.1 µg/mL and 300 nM
- CC50 [7]: 24.7 ± 1.6 µM
- Growth inhibition (in words) [8]: inhibit the growth
- CC50 [9]: 3.4 ± 0.7 µg/mL (≈ 9.33 µM)
- Growth inhibition (in words) [10]: inhibit the growth
- IC50 [11]: 2.69 µM
- Bactericidal activity (in words) [12]: no killing effects
- Bactericidal activity (in words) [13]: not lethal
- Bactericidal activity (in words) ([13]; listed as quinestrol): did not kill; also recorded: completely resistant to killing
- Inhibition of oxygen consumption [1]: 4 fold
- IC50 [1]: 0.549 µM and 0.5 µM
- Residual oxygen consumption activity ([1]; at higher concentrations): around 20%
- Succinate dehydrogenase activity (in words) [14]: does not inhibit succinate dehydrogenase activity
- IC50 [15]: 0.1 µg/mL and 300 nM
- CC50 [16]: 5.6 ± 0.3 µg/mL (≈ 15.4 µM)
- IC50 [17]: 0.06 µg/mL and 200 nM
- IC50 ([18]; Staphylococcus aureus, read-out: IC50 growth, MRSA WT, TSB medium): 9.8 µg/mL and 27 µM
- IC50 ([18]; read-out: IC50 growth, MRSA WT, TSB medium): 26.9 µM

Compound: microcin J25 (GGAGHVPEYFVGIGTPISFYG; ends and bridges not checked; UniProt Q9X2V7 38-58, looked up)
- IC50 (in words) [19]: µM range

Compound: C#C[C@]1(O)CC[C@H]2[C@@H]3CCc4cc(O)ccc4[C@H]3CC[C@@]21C [Ethinyl estradiol]
- Inhibition of oxygen consumption [1]: 2 fold
- IC50 [1]: 159 µM and 158 µM

Compound: CCn1c(C(=O)O)c(CNCCc2ccc(Cl)cc2)c2ccccc21 [MQL-H2, 3-[[2-(4-chlorophenyl)ethylamino]methyl]-1-ethyl-indole-2-carboxylic]
- IC50 [20]: 34 µM

Compound: gramicidin S
- IC50 (in words) [21]: µM range

Compound: cathelicidin LL-37
- IC50 (in words) [19]: µM range
